{"source": "patent US8466118B2", "about": "“Modulation of blood brain barrier protein expression” (Saint Louis University, priority 2007, dated 2013)", "key": {"LRP-1 [1]": {"target": "T1, LRP-1 (Mus musculus, UniProt Q91ZX7)", "T1 construct": "from tissue; host or cells: brain of living mice (iv, icv or chronic icv antisense)", "T1 sequence (Q91ZX7 20-4545)": "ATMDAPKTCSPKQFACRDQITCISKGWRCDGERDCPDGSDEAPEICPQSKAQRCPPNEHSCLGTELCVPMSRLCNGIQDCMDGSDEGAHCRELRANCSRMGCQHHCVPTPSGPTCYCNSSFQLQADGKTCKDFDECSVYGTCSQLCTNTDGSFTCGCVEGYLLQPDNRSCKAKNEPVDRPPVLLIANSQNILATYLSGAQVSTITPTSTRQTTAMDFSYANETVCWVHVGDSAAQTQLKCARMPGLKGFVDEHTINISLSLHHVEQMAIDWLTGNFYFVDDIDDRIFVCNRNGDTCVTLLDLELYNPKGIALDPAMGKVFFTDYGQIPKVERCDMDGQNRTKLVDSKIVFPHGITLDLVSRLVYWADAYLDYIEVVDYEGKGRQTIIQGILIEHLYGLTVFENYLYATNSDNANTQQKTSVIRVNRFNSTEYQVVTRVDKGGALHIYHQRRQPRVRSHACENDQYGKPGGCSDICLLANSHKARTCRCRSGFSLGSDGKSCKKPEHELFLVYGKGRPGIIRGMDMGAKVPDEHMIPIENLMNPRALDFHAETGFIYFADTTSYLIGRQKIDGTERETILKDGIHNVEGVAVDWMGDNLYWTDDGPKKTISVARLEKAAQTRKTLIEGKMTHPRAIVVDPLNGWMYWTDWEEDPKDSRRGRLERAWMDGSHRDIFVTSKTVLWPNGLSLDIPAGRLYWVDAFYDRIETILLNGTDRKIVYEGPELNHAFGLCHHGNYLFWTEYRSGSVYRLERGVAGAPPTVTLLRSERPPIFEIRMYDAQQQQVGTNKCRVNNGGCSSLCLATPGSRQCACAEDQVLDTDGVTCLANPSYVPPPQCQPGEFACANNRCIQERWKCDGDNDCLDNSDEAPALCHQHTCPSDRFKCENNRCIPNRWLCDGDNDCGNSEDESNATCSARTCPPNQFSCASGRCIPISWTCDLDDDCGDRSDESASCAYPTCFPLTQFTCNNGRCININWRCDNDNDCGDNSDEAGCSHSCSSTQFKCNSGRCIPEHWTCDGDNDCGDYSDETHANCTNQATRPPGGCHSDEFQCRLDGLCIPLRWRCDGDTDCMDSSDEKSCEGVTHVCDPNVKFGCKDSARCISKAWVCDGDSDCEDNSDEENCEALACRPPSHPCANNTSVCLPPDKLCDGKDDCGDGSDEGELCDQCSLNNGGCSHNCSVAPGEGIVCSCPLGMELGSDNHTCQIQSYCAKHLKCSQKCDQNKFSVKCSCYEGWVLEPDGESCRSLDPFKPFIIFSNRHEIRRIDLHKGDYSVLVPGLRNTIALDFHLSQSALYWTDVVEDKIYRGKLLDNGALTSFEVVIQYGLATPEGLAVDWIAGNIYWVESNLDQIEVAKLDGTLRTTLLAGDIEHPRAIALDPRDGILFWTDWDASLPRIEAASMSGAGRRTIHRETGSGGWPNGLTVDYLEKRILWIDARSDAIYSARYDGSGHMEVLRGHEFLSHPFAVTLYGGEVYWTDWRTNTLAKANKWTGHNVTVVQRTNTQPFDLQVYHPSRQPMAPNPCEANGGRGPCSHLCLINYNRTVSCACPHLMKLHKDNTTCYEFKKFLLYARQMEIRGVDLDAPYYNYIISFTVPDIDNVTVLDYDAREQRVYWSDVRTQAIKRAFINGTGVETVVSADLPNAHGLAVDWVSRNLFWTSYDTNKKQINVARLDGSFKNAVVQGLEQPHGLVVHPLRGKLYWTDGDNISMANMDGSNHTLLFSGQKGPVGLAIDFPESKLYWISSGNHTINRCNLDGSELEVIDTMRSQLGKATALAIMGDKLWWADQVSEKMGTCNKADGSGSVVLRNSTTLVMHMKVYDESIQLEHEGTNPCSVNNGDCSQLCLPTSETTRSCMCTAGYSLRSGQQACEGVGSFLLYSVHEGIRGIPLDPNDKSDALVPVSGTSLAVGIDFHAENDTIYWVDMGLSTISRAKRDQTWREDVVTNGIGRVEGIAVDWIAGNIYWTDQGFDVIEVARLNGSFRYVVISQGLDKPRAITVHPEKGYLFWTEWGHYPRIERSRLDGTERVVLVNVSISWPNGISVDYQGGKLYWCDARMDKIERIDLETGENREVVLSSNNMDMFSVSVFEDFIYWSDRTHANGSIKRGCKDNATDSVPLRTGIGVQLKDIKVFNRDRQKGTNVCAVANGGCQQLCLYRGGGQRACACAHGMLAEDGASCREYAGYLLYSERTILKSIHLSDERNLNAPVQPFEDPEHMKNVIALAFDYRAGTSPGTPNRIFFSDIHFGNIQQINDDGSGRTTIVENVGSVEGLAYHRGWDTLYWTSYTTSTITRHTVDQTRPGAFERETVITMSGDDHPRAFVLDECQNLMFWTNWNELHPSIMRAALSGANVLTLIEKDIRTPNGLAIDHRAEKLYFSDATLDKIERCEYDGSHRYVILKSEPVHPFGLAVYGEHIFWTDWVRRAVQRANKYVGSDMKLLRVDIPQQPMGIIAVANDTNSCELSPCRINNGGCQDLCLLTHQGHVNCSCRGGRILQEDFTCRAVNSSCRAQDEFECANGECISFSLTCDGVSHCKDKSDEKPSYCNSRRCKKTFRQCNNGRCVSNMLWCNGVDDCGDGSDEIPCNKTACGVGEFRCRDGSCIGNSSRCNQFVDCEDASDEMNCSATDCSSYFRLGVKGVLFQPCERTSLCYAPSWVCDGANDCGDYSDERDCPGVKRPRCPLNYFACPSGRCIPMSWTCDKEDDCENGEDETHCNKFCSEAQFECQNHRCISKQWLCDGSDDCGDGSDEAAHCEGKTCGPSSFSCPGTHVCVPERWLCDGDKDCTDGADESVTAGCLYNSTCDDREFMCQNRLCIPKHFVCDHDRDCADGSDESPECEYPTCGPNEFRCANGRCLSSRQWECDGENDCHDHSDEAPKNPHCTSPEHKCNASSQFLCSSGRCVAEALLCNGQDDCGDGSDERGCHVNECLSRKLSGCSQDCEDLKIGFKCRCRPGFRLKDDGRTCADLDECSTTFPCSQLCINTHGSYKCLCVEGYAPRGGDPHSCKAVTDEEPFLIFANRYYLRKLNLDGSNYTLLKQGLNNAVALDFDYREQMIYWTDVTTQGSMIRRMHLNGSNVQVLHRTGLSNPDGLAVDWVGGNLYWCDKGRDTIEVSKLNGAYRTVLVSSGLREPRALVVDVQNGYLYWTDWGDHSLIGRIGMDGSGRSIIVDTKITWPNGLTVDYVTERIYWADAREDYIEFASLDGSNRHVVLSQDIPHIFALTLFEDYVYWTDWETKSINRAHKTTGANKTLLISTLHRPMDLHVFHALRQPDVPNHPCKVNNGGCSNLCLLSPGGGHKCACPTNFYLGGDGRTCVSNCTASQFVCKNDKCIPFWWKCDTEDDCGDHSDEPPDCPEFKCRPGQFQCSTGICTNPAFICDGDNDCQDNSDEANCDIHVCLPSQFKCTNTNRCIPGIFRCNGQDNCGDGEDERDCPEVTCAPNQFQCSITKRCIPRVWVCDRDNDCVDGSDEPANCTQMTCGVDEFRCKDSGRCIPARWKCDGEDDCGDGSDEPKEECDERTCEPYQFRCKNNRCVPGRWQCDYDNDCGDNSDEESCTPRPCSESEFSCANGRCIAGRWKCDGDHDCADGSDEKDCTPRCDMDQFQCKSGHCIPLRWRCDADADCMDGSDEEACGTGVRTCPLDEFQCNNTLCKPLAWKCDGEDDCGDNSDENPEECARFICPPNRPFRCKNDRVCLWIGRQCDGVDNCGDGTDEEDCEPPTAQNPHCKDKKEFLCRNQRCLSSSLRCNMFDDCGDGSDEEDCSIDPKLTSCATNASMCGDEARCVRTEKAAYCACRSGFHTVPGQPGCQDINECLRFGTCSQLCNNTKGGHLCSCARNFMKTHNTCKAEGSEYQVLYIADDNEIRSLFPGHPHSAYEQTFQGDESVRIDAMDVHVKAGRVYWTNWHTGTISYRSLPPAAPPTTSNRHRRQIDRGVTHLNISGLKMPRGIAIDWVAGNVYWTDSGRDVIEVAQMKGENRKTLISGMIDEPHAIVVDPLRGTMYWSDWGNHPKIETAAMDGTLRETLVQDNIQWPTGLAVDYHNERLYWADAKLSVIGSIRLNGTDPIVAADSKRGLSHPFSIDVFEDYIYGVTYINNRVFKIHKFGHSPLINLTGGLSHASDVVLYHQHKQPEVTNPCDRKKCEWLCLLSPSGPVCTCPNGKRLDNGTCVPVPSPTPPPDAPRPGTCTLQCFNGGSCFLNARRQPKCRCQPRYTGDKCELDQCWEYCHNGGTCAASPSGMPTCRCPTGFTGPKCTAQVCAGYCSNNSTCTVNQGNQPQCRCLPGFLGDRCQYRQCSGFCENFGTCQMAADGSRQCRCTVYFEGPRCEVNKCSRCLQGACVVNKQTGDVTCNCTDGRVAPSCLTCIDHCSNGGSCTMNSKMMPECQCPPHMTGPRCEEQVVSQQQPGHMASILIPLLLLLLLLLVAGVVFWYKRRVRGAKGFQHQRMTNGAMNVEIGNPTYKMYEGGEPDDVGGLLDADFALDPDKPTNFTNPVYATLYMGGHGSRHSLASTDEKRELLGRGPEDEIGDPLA", "assay": "Recognition of a novel object after chronic icv infusion", "type": "in vivo", "details": "2 wk icv infusion 100 ng/h", "experimental": "Recognition of a novel object: This method has been described previously(Jaeger et al., 2002). Briefly, recognition memory for a novel object was assessed in cocktail and random antisense treated animals (100 ng/h two week infusion). Prior to testing, mice were habituated for three consecutive days to the testing apparatus (a 58×66×11 cm white, plastic box). During habituation, each mouse was allowed to freely explore the testing apparatus for 5 min. On the first day of training, mice were placed in the testing apparatus for 5 min and allowed to explore a pair of identical objects (Objects A and B; both were 7×6.3×5.1 cm). On the second day of training, one of the original objects was replaced with a new, or novel, object (Object C; 8.2×3.8×7.4 cm). Mice were placed in the testing apparatus for 5 min and the amount of time each mouse spent sniffing or touching the novel object was recorded by an observer. Results from this study were expressed as the percent of time spent investigating the novel object."}, "LRP-1 [2]": {"test_system": "LRP-1", "assay": "Immunohistochemistry of LRP-1 in isolated mouse brain microvessels (MBMs)", "type": "cell-based", "details": "10 μg/mL, 24 h, buffer = 100%", "description": "Isolation of mouse brain microvessels (MBMs): Mouse brain microvessels (MBMs) were isolated by a modification of a method of Gerhart et al (Brain Res Bull 21, 785-793, 1998). All glassware was pre-coated with phosphate buffered saline (PBS) supplemented with 1% BSA (1% BSA/PBS). This was done to minimize adhesion and to maximize recovery of microvessels. Briefly, ten to twelve cerebral cortices from adult male CD-1 mice were collected and the meninges removed. They were homogenized on ice in 5 mL of cold stock buffer (25 mM HEPES, 1% dextran and 1 envelope of Minimum Essential Medium (Invitrogen), pH 7.4). The homogenate was then filtered through a series of nylon mesh membranes (300 μm, then twice through 100 μm; Spectrum, Houston, Tex.), mixed with an equal volume of 40% dextran in stock buffer, and centrifuged at 3,000×g for 30 min at 4° C. […]\nImmunohistochemistry of LRP-1 in isolated MBMs: Isolated MBMs were treated with either incubation buffer, random antisense, or antisense cocktail (10 μg/mL) in incubation buffer for 24 h. […] Fluorescence was detected with Zeiss Axiovert 40 CFL fluorescent microscope (Carl Zeiss, Inc., Thornwood, N.Y.). Images were obtained from 5-6 microvessels in each group and mean fluorescent intensity was quantified using Image J analysis software (National Institute of Health, USA)."}, "beta-F1 ATPase": {"target": "T2, beta-F1 ATPase (Mus musculus, UniProt P56480)", "T2 construct": "from tissue; host or cells: brain / blood-brain barrier of living mice (CD-1; SAMP8 in the T-maze study)", "T2 sequence (P56480 47-529)": "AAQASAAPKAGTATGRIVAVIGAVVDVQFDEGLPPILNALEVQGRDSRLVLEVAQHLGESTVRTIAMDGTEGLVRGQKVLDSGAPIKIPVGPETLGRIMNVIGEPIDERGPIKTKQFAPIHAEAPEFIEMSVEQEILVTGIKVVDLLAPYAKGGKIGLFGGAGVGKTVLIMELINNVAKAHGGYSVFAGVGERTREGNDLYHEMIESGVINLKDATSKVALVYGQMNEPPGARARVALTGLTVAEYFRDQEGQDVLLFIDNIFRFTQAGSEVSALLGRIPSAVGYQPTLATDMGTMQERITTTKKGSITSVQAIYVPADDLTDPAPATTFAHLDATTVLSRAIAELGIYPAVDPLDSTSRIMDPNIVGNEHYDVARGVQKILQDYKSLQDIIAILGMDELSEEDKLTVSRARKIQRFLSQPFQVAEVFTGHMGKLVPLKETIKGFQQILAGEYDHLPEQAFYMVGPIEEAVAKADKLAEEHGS", "assay": "Brain perfusion uptake of I-PACAP27/I-PACAP38 after iv antisense", "type": "in vivo", "details": "single tail vein injection 24 h before study, 10 μg/mouse", "experimental": "To test the effectiveness of PTS-6 antisenses after their intravenous administration, two month old male CD-1 mice kept on a 12/12 hour light/dark cycle with food and water freely available were given an injection by tail vein of 0.9% saline with or without 10 μg/mouse of each of the three antisenses. To determine the specificity of the PTS-6 antisense on I-PACAP27 efflux, three other antisenses were also injected iv. These were:\nAfter 24 h, the mice were anesthetized with urethane and both jugular veins exposed. The thorax was opened, the descending thoracic aorta clamped, both jugular veins severed, and lactated Ringer's solution containing I-PACAP27 (250,000 cpm/ml) perfused through the left ventricle of the heart at the rate of 2 ml/min. ^131I-PACAP38 (hereafter referred to as I-PACAP38) was perfused in some mice treated with PTS-6 antisense. After 5 min, the perfusion was stopped and 20 ml of lactated Ringer's solution was infused through the left ventricle of the heart to wash out the vascular space of the brain. The level of radioactivity was determined in the brain and in an aliquot of the perfusion fluid and results expressed as the brain/perfusion ratio in units of μl/g."}, "LRP-1 [3]": {"target": "T1, LRP-1", "assay": "Brain efflux of I-Aβ42 after acute icv antisense", "type": "in vivo", "details": "24 h after icv antisense, compared to saline", "description": "In vivo brain-to-blood efflux rate of icv antisense: A standard method was used to quantify brain-to-blood efflux rates (Banks et al., Neuroscience 121, 487-492, 2003; Jaeger et al., Proc Natl Acad Sci USA 102, 12495-12500, 2005). First, mice were anesthetized with an i.p. injection of 40% urethane. After the scalp was removed, a hole was made through the cranium (1.0 mm lateral and 0.5 mm posterior to bregma) with a 26-gauge needle. All of the needle except 2.5 to 3.0 mm of the tip was covered by PE-10 tubing. […] Injections were made into the lateral ventricle (icv) with a 1.0 μl Hamilton syringe.\nFor studies in which the -Slope is reported, this value was determined from a graph created with two time points (0 and 10 min) as described above. After the log of the mean % of the injected dose of radioactivity (amount detected/amount injected*100=% Inj Dose) in each brain was plotted against time (min), linear regression was used to create a line between the multiple values at these two points.\nIn some experiments, mice received two icv injections (antisense cocktail or saline icv and, at t=30 min or t=24 h, icv I-Aβ42). In these cases, the dose of antisense given was 200 ng/μl LR-BSA and the dose of I-Aβ42 given was 5×10^3 cpm/μl LR-BSA.\nIn the specificity experiment, mice received two icv injections. […]"}, "P-glycoprotein": {"test_system": "P-glycoprotein", "details": "intracranial introduction, rat; cited from earlier work"}, "LRP-1 [4]": {"target": "T1, LRP-1", "assay": "Abluminal-to-luminal transport of I-Aβ42 in primary BMEC monolayers", "type": "cell-based", "details": "1 μg/mL unlabeled Aβ42 in abluminal chamber", "experimental": "Isolation of mouse brain microvascular endothelial cells (BMECs): BMECs were isolated using a modified method of Szabó et al. (Neurobiology 5, 1-16 (1997). In brief, cerebral cortices from 8-week-old CD-1 mice were isolated, cleaned of meninges, and minced. The homogenate was digested with collagenase type II (1 mg/mL) and DNase I (30 U/mL) in Dulbecco's Modified Eagle Media (DMEM) [containing 100 units/mL penicillin, 100 μg/mL streptomycin, 50 μg/mL gentamicin and 2 mM GlutaMAX-I (Invitrogen, Carlsbad, Calif.)] at 37° C. for 40 min. After digestion, 20% bovine serum albumin (BSA) dissolved in DMEM was added. The sample was then centrifuged at 1,000×g for 20 min, the supernatant containing the neurons and glial cells was removed, and the pellet containing the microvessels further digested at 37° C. for 30 min with collagenase/dispase at a concentration of 1 mg/mL (Roche, Mannheim, Germany) and DNase I (30 U/mL dissolved in DMEM). After the second enzyme digestion, we then layered the pellet on a 33% Percoll (Amersham Biosciences, Piscataway, N.J.) gradient and centrifuged at 1,000×g for 10 min to separate the microvessels. To create the Percoll gradient, 33% Percoll solution (8 mL Percoll, 14.4 mL phosphate buffered saline; PBS, 0.8 mL plasma derived serum; PDS, and 0.8 mL 10×PBS) was centrifuged at 20,300×g for 1 h, prior to this step. […]"}}, "note": "Oligonucleotides are written 5' to 3', each unit as a sugar letter and its base; * is a phosphorothioate linkage, no mark a phosphodiester; rarer units and linkages stand in square brackets, end groups in braces. Plain capitals give the bases only. d = 2'-deoxy (DNA)", "data": [{"substance": "5′-(_P═S)GAGAAGGTTGTGTGATCTTCA (antisense dG*dA*dG*dA*dA*dG*dG*dT*dT*dG*dT*dG*dT*dG*dA*dT*dC*dT*dT*dC*dA; listed as Mus musculus) [random antisense]", "values": [{"measurement": "time spent investigating the novel object", "setting": "LRP-1 [1]", "result": "spent a majority of their time investigating the new object"}, {"measurement": "mean fluorescent intensity (LRP-1 immunofluorescence)", "setting": "LRP-1 [2]", "result": 111.14, "unit": "%"}]}, {"substance": "5′-(_P═S)GGCGCCTTTGTTCGAACCCACATCTTCAGCAAAGAACACCAG-3′ (antisense dG*dG*dC*dG*dC*dC*dT*dT*dT*dG*dT*dT*dC*dG*dA*dA*dC*dC*dC*dA*dC*dA*dT*dC*dT*dT*dC*dA*dG*dC*dA*dA*dA*dG*dA*dA*dC*dA*dC*dC*dA*dG; listed as Mus musculus)", "values": [{"measurement": "uptake of I-PACAP27 delivered by brain perfusion", "setting": "beta-F1 ATPase", "result": "no statistically significant effect"}, {"measurement": "brain efflux of I-Aβ42 (specificity experiment)", "setting": "LRP-1 [3]", "result": "significant increase"}]}, {"substance": "5′-(_P═S)TCATGAAGCC-3′ (antisense dT*dC*dA*dT*dG*dA*dA*dG*dC*dC; listed as Mus musculus)", "values": [{"measurement": "uptake of I-PACAP27 delivered by brain perfusion", "setting": "beta-F1 ATPase", "result": "no statistically significant effect"}, {"measurement": "brain efflux of I-Aβ42 (specificity experiment)", "setting": "LRP-1 [3]", "result": "significant increase"}]}, {"substance": "5′-GGACTAAATGCTTTCCTTTGTGACAG-3′ (listed as DNA, chemistry not given here; listed as Rattus norvegicus) [SEQ ID NO 16]", "values": [{"measurement": "P-glycoprotein expression in the brain", "setting": "P-glycoprotein", "result": "reduction of the rat P-glycoprotein expression"}]}, {"substance": "Aβ42: 42 amino acid murine amyloid beta (DAEFGHDSGFEVRHQKLVFFAEDVGSNKGAIIGLMVGGVVIA; Amyloid-beta protein 42; UniProt P12023 672-713, looked up)", "values": [{"measurement": "abluminal-to-luminal transport of I-Aβ42 (saturability)", "setting": "LRP-1 [4]", "result": "significantly (p<0.01) inhibited"}]}]}
